Data: ChEMBL document CHEMBL1127987, “()11-Amino-2,6-dimethyl-1,2,3,4-tetrahydro-6H-quinindolin-1-one, a novel gabaA modulator with potential anxiolytic activity” (Bioorg Med Chem Lett, 1994)

Key:
[1] = molecular target: GABA-A receptor; anion channel; assay: Displacement of [3H]flunitrazepam from rat cerebral cortex; format: tissue-based
[2] = molecular target: GABA-A receptor; anion channel; assay: Inhibition of [35S]TBPS binding to Gamma-aminobutyric acid A (GABA-A) receptor of rat brain in the presence of 5 uM GABA
Rattus norvegicus [3] = assay: Punished responding phase in Geller-Seifter test was determined at 1 hr post-dose of 10 mg/Kg p.o.; format: functional
Rattus norvegicus [4] = assay: Punished responding phase in Geller-Seifter test was determined at 1 hr post-dose of 100 mg/Kg p.o.; format: functional
Rattus norvegicus [5] = assay: Punished responding phase in Geller-Seifter test was determined at 1 hr post-dose of 20 mg/Kg p.o.; format: functional
Rattus norvegicus [6] = assay: Punished responding phase in Geller-Seifter test was determined at 1 hr post-dose of 5 mg/Kg p.o.; format: functional
Rattus norvegicus [7] = assay: Punished responding phase in Geller-Seifter test was determined at 1 hr post-dose of 50 mg/Kg p.o.; format: functional
Rattus norvegicus [8] = assay: Punished responding phase in Geller-Seifter test was determined at 2 hr post-dose of 20 mg/Kg p.o.; format: functional
Rattus norvegicus [9] = assay: Punished responding phase in Geller-Seifter test was determined at 2 hr post-dose of 50 mg/Kg p.o.; format: functional
Rattus norvegicus [10] = species on record: Rattus norvegicus; assay: Minimum effective peroral dose in Geller-Seifter paradigm; format: functional; settings: po, read-out: MED
Rattus norvegicus [11] = assay: Number of animals responding out of those tested (Nr/N) in Geller-Seifter test was determined at 1 hr post-dose of 10 mg/Kg p.o. (Animals tested 15); format: functional
Rattus norvegicus [12] = assay: Number of animals responding out of those tested (Nr/N) in Geller-Seifter test was determined at 1 hr post-dose of 100 mg/Kg p.o. (Animals tested 16); format: functional
Rattus norvegicus [13] = assay: Number of animals responding out of those tested (Nr/N) in Geller-Seifter test was determined at 1 hr post-dose of 20 mg/Kg p.o. (Animals tested 16); format: functional
Rattus norvegicus [14] = assay: Number of animals responding out of those tested (Nr/N) in Geller-Seifter test was determined at 2 hr post-dose of 50 mg/Kg p.o. (Animals tested 16); format: functional
Rattus norvegicus [15] = assay: Number of animals responding out of those tested (Nr/N) in Geller-Seifter test was determined at 1 hr post-dose of 5 mg/Kg p.o. (Animals tested 6); format: functional
Rattus norvegicus [16] = assay: Number of animals responding out of those tested (Nr/N) in Geller-Seifter test was determined at 1 hr post-dose of 50 mg/Kg p.o. (Animals tested 16); format: functional
Rattus norvegicus [17] = assay: Number of animals responding out of those tested (Nr/N) in Geller-Seifter test was determined at 2 hr post-dose of 20 mg/Kg p.o. (Animals tested 16); format: functional
Rattus norvegicus [18] = assay: Number of animals responding out of those tested (Nr/N) in Geller-Seifter test was determined at 2 hr post-dose of 20 mg/Kg p.o. (Animals tested 8); format: functional
Rattus norvegicus [19] = assay: Number of animals responding out of those tested (Nr/N) in Geller-Seifter test was determined at 1 hr post-dose of 20 mg/Kg p.o. (Animals tested 6); format: functional
[20] = system: GABA-A receptor; anion channel; assay: Displacement of [3H]flunitrazepam from rat cerebral cortex (Insoluble); format: tissue-based
Rattus norvegicus [21] = assay: Punished responding phase in Geller-Seifter test was determined at 1 hr post-dose of 2.5 mg/Kg p.o.; format: functional
Rattus norvegicus [22] = assay: Punished responding phase in Geller-Seifter test was determined at 2 hr post-dose of 10 mg/Kg p.o.; format: functional
Rattus norvegicus [23] = assay: Punished responding phase in Geller-Seifter test was determined at 2 hr post-dose of 100 mg/Kg p.o.; format: functional
Rattus norvegicus [24] = assay: Number of animals responding out of those tested (Nr/N) in Geller-Seifter test was determined at 1 hr post-dose of 10 mg/Kg p.o. (Animals tested 6); format: functional
Rattus norvegicus [25] = assay: Number of animals responding out of those tested (Nr/N) in Geller-Seifter test was determined at 1 hr post-dose of 100 mg/Kg p.o. (Animals tested 6); format: functional
Rattus norvegicus [26] = assay: Number of animals responding out of those tested (Nr/N) in Geller-Seifter test was determined at 1 hr post-dose of 2.5 mg/Kg p.o. (Animals tested 6); format: functional
Rattus norvegicus [27] = assay: Number of animals responding out of those tested (Nr/N) in Geller-Seifter test was determined at 2 hr post-dose of 20 mg/Kg p.o. (Animals tested 6); format: functional
Rattus norvegicus [28] = assay: Number of animals responding out of those tested (Nr/N) in Geller-Seifter test was determined at 2 hr post-dose of 50 mg/Kg p.o. (Animals tested 6); format: functional
Rattus norvegicus [29] = assay: Number of animals responding out of those tested (Nr/N) in Geller-Seifter test was determined at 1 hr post-dose of 5 mg/Kg p.o. (Animals tested 14); format: functional
Rattus norvegicus [30] = assay: Number of animals responding out of those tested (Nr/N) in Geller-Seifter test was determined at 1 hr post-dose of 50 mg/Kg p.o. (Animals tested 6); format: functional
Rattus norvegicus [31] = assay: Number of animals responding out of those tested (Nr/N) in Geller-Seifter test was determined at 2 hr post-dose of 10 mg/Kg p.o. (Animals tested 14); format: functional
Rattus norvegicus [32] = assay: Number of animals responding out of those tested (Nr/N) in Geller-Seifter test was determined at 2 hr post-dose of 100 mg/Kg p.o. (Animals tested 6); format: functional
Rattus norvegicus [33] = assay: Punished responding phase in Geller-Seifter test was determined at 2 hr post-dose of 5 mg/Kg p.o.; format: functional
Rattus norvegicus [34] = assay: Number of animals responding out of those tested (Nr/N) in Geller-Seifter test was determined at 2 hr post-dose of 5 mg/Kg p.o. (Animals tested 16); format: functional
Rattus norvegicus [35] = assay: Number of animals responding out of those tested (Nr/N) in Geller-Seifter test was determined at 1 hr post-dose of 5 mg/Kg p.o. (Animals tested 8); format: functional
[36] = molecular target: T1, GABA-A receptor; anion channel (Rattus norvegicus) (UniProt O09028+P15431+P18506+P18508+P19969+P20236+P23574+P23576+P28471+P28473+P30191+P62813+P63079+P63138+Q91ZM7+Q9ES14); settings: Cerebral cortex, 0.12 uM
Description: Inhibition of [3H]Flunitrazepam binding to rat cerebral cortex at 0.12 uM

[37] = molecular target: T1, GABA-A receptor; anion channel (Rattus norvegicus); settings: 0.01 uM
Description: Inhibition of [35S]TBPS binding to Gamma-aminobutyric acid A (GABA-A) receptor of rat brain in the presence of 5 uM GABA at 0.01 uM

CCOC(=O)c1c(C)nc2c(c1N)c1ccccc1n2C
IC50 [1]: > 100000 nM | IC50 ([2]; read-out: IC50): 2000 nM | Change (Rattus norvegicus [3]): 20% | Change (Rattus norvegicus [4]): 122% | Change (Rattus norvegicus [5]): 22% | Change (Rattus norvegicus [6]): 2% | Change (Rattus norvegicus [7]): 63% | Change (Rattus norvegicus [8]): 6% | Change (Rattus norvegicus [9]): 4% | minimal effective dose (Rattus norvegicus [10]): 10 mg/kg | Nr/N (Rattus norvegicus [11]): 10 | Nr/N (Rattus norvegicus [12]): 14 | Nr/N (Rattus norvegicus [13]): 12 | Nr/N (Rattus norvegicus [14]): 6 | Nr/N (Rattus norvegicus [15]): 5 | Nr/N (Rattus norvegicus [16]): 15 | Nr/N (Rattus norvegicus [17]): 6

CCC1CCc2nc3c(c(N)c2C1=O)c1ccccc1n3C (centres undefined)
IC50 ([2]; read-out: IC50): 940 nM | minimal effective dose (Rattus norvegicus [10]): 20 mg/kg

CCC(=O)c1c(C)nc2c(c1N)c1ccccc1n2C
IC50 [1]: > 100000 nM | IC50 ([2]; read-out: IC50): 1600 nM | Change (Rattus norvegicus [5]): 41% | Change (Rattus norvegicus [8]): 28% | minimal effective dose (Rattus norvegicus [10]): 20 mg/kg | Nr/N (Rattus norvegicus [18]): 5 | Nr/N (Rattus norvegicus [19]): 5

CCCC(=O)c1c(C)nc2c(c1N)c1ccccc1n2C
IC50 ([2]; read-out: IC50): 2300 nM | minimal effective dose (Rattus norvegicus [10]): 20 mg/kg

Cn1c2ccccc2c2c(N)c3c(nc21)CCOC3=O
IC50 [20]: Insoluble | IC50 [2]: Insoluble | minimal effective dose (Rattus norvegicus [10]): > 20 mg/kg

CC1CCc2nc3c(c(N)c2C1=O)c1ccccc1n3C (centres undefined)
IC50 [1]: > 100000 nM | IC50 ([2]; read-out: IC50): 950 nM | Change (Rattus norvegicus [3]): 43% | Change (Rattus norvegicus [4]): 137% | Change (Rattus norvegicus [21]): 0% | Change (Rattus norvegicus [5]): 52% | Change (Rattus norvegicus [6]): 19% | Change (Rattus norvegicus [7]): 146% | Change (Rattus norvegicus [22]): 22% | Change (Rattus norvegicus [23]): 141% | Change (Rattus norvegicus [8]): 36% | Change (Rattus norvegicus [9]): 62% | minimal effective dose (Rattus norvegicus [10]): 5 mg/kg | Nr/N (Rattus norvegicus [24]): 5 | Nr/N (Rattus norvegicus [25]): 6 | Nr/N (Rattus norvegicus [26]): 0 | Nr/N (Rattus norvegicus [27]): 6 | Nr/N (Rattus norvegicus [28]): 6 | Nr/N (Rattus norvegicus [19]): 5 | Nr/N (Rattus norvegicus [29]): 8 | Nr/N (Rattus norvegicus [30]): 5 | Nr/N (Rattus norvegicus [31]): 7 | Nr/N (Rattus norvegicus [32]): 6

CN1C(=O)CN=C(c2ccccc2)c2cc(Cl)ccc21 [DIAZEPAM]
Change (Rattus norvegicus [6]): 57% | Change (Rattus norvegicus [33]): 38% | minimal effective dose (Rattus norvegicus [10]): 2.5 mg/kg | Nr/N (Rattus norvegicus [34]): 8 | Nr/N (Rattus norvegicus [35]): 6 | inhibition [36]: 100% | inhibition [37]: < 50%

Cc1nc2c(c(N)c1C(=O)O)c1ccccc1n2C
IC50 [1]: > 100000 nM | IC50 ([2]; read-out: IC50): > 100000 nM | minimal effective dose (Rattus norvegicus [10]): > 50 mg/kg
